# Measured values reported in patent US6358947B1 (American Home Products Corporation, priority 1999, dated 2002).
# Read-outs that look alike come from different tables or passages of the source.
# Key:
# hPR-A = biological target: T1, hPR-A (Homo sapiens, UniProt P06401); assay: PR receptor binding assay
# T1 sequence (P06401 1-769 isoform P06401-2): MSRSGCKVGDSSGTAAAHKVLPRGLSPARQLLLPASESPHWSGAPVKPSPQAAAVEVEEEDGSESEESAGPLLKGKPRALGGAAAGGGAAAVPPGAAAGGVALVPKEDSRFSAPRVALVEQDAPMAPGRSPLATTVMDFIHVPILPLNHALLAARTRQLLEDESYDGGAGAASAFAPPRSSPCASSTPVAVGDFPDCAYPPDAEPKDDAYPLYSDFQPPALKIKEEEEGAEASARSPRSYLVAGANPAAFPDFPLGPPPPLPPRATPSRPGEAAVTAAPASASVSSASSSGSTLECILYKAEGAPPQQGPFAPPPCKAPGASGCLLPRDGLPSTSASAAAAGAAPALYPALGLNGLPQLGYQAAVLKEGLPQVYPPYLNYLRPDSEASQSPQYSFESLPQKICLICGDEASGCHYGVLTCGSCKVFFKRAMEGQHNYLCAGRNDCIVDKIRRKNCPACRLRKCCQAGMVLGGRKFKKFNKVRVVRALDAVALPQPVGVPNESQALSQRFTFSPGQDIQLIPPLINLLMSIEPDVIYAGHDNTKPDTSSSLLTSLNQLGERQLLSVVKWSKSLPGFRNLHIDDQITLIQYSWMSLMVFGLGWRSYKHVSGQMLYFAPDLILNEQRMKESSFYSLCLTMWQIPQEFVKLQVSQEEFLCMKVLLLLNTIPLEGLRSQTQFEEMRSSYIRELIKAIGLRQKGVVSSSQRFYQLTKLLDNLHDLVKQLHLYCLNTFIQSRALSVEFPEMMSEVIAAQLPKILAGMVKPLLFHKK
# human PR = biological target: T2, human PR (Homo sapiens, UniProt P06401); assay: Cotransfection assay, PR agonist, CV-1 cells; format: cell-based; conditions: for PR Agonist CV-1 Cells Efficacy: percent maximal response relative to reference agonist
# T2 sequence (P06401 1-933): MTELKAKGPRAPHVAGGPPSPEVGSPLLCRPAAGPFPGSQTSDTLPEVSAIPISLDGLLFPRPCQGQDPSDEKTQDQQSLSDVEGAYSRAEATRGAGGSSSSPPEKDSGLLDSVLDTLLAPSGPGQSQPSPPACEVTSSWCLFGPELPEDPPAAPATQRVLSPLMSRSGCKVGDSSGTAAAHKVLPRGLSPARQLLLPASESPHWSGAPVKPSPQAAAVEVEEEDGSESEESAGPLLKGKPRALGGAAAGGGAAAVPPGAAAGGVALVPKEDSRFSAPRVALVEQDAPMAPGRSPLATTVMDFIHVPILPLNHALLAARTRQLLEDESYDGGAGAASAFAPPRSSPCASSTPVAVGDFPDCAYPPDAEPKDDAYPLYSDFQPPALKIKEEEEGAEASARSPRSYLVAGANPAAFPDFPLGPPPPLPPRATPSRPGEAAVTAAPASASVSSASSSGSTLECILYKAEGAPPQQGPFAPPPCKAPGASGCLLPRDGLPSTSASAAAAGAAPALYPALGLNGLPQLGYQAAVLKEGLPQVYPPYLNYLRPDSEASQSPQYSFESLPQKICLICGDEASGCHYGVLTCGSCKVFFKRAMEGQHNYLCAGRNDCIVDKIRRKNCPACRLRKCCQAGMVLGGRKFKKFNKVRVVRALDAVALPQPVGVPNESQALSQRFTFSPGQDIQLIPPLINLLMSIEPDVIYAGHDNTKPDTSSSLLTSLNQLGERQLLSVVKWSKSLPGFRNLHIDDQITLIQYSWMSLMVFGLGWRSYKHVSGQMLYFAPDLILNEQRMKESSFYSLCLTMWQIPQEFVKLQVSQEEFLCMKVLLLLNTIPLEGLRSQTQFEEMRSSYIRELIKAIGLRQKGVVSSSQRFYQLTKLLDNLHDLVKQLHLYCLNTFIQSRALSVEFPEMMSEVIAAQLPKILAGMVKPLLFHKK
# Text: The cotransfection assay provides a method for identifying functional agonists and partial agonists that mimic, or antagonists that inhibit, the effect of native hormones, and for quantifying their activity for responsive intracellular receptor (IR) proteins. In this regard, the cotransfection assay mimics an in vivo system in the laboratory. Importantly, activity in the cotransfection assay correlates very well with known in vivo activity, such that the cotransfection assay functions as a qualitative and quantitative predictor of a tested compound's in vivo pharmacology.
# In the cotransfection assay, a cloned cDNA for an IR (e.g., human PR, AR or GR) under the control of a constitutive promoter (e.g., the SV 40 promoter) is introduced by transfection (a procedure to induce cells to take up foreign genes) into a background cell substantially devoid of endogenous IRs. This introduced gene directs the recipient cells to make the IR protein of interest. A second gene is also introduced (cotransfected) into the same cells in conjunction with the IR gene. This second gene, comprising the cDNA for a reporter protein, such as firefly luciferase (LUC), is controlled by an appropriate hormone responsive promoter containing a hormone response element (HRE). This reporter plasmid functions as a reporter for the transcription-modulating activity of the target IR. Thus, the reporter acts as a surrogate for the products (mRNA, then protein) normally expressed by a gene under control of the target receptor and its native hormone.
# The cotransfection assay can detect small molecule agonists or antagonists of target IRs. Exposing the transfected cells to an agonist ligand compound increases reporter activity in the transfected cells. This activity can be conveniently measured, e.g., by increasing luciferase production, which reflects compound-dependent, IR-mediated increases in reporter transcription. […] Increasing concentrations of a suspected antagonist will decrease the reporter signal (e.g., luciferase production). The cotransfection assay is therefore useful to detect both agonists and antagonists of specific IRs. Furthermore, it determines not only whether a compound interacts with a particular IR, but whether this interaction mimics (agonizes) or blocks (antagonizes) the effects of the native regulatory molecules on target gene expression, as well as the specificity and strength of this interaction.
# [1] = CV-1 cells, Table 1, read-out: PR Agonist CV-1 Cells Potency
SMILES,Ki (hPR-A),EC50 (human PR; [1]),PR Agonist CV-1 Cells Efficacy (human PR; CV-1 cells),"EC50 (human PR; Table 2, read-out: PR Potency Agon)"
"CC1(C)OC(=O)Nc2ccc3c(c21)COc1c(F)cc(C#N)cc1-3 [Compound 26, 9-cyano-7-fluoro-4,4-dimethyl-5H-chromeno[3,4-f]-1,3-benzo[d]oxazin-2-one]",20 nM,1000 nM,60%,–
"CC1(C)OC(=O)Nc2ccc3c(c21)COc1c(F)cc(C=NO)cc1-3 [Compound 25, 7-fluoro-9-hydroxyiminomethyl-4,4-dimethyl-5H-chromeno[3,4-f]-1,3-benzo[d]oxazin-2-one]",65 nM,623 nM,46%,–
"CC1(C)OC(=O)Nc2ccc3c(c21)COc1c(F)cccc1-3 [Compound 14, 7-Fluoro-4,4-dimethyl-5H-chromeno[3,4-f]-1,3-benzo[d]oxazin-2-one]",172 nM,2500 nM,30%,–
"CC1(C)OC(=O)Nc2ccc3c(c21)COc1c(F)cc(Br)cc1-3 [Compound 20, 9-Bromo-7-fluoro-4,4-dimethyl-5H-chromeno[3,4-f]-1,3-benzo[d]oxazin-2-one]",17 nM,500 nM,30%,–
"CC1(C)OC(=O)Nc2ccc3c(c21)COc1c(F)cc(C=O)cc1-3 [Compound 24, 7-fluoro-9-formyl-4,4-dimethyl-5H-chromeno[3,4-f]-1,3-benzo[d]oxazin-2-one]",181 nM,> 10000 nM,"na (na = not active (i.e. efficacy of <20 and potency of >10,000))",> 10000 nM
